Experimental data reported in PubChem BioAssay (NCI).
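Five compound concentrations were applied to cells in 96-well plates for 48 hours; endpoints were derived by simple linear interpolation of the resulting dose-response curve. GI50 is the concentration that inhibits growth by half. The concentration for full growth arrest is given as TGI.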

Key:
Test in all cases: NCI anticancer screen, dose series, 48 h
786-0 renal = tested on: 786-0 renal
A549 NSCLC = tested on: A549 NSCLC
HCC-2998 colon = tested on: HCC-2998 colon
HCT-116 colon = tested on: HCT-116 colon
K-562 leukemia = tested on: K-562 leukemia
LOX IMVI melanoma = tested on: LOX IMVI melanoma
MOLT-4 leukemia = tested on: MOLT-4 leukemia
NCI-H23 lung = tested on: NCI-H23 lung
OVCAR-3 ovarian = tested on: OVCAR-3 ovarian
OVCAR-8 ovarian = tested on: OVCAR-8 ovarian
RXF 393 renal = tested on: RXF 393 renal
SF-268 CNS = tested on: SF-268 CNS
SK-MEL-2 melanoma = tested on: SK-MEL-2 melanoma
UACC-257 melanoma = tested on: UACC-257 melanoma
UO-31 renal = tested on: UO-31 renal
CAKI-1 renal = tested on: CAKI-1 renal
HOP-62 NSCLC = tested on: HOP-62 NSCLC
NCI-H226 lung = tested on: NCI-H226 lung

Compound | TGI (786-0 renal) [µM] | TGI (A549 NSCLC) [µM] | TGI (HCC-2998 colon) [µM] | TGI (HCT-116 colon) [µM] | TGI (K-562 leukemia) [µM] | TGI (LOX IMVI melanoma) [µM] | TGI (MOLT-4 leukemia) [µM] | TGI (NCI-H23 lung) [µM] | TGI (OVCAR-3 ovarian) [µM] | TGI (OVCAR-8 ovarian) [µM] | TGI (RXF 393 renal) [µM] | TGI (SF-268 CNS) [µM] | TGI (SK-MEL-2 melanoma) [µM] | TGI (UACC-257 melanoma) [µM] | TGI (UO-31 renal) [µM] | GI50 (CAKI-1 renal) [µM] | TGI (CAKI-1 renal) [µM] | TGI (HOP-62 NSCLC) [µM] | TGI (NCI-H226 lung) [µM]
CC(C)C1C(=O)NC(CO)Cc2c[nH]c3c(C(c4c[nH]c5ccccc45)C(O)CO)ccc(c23)N1C (configuration not stated) | > 100 | > 100 | 18.5 | > 100 | > 100 | > 100 | > 100 | > 100 | > 100 | > 100 | > 100 | > 100 | > 100 | > 100 | > 100 |  |  |  | 
Cc1ccc2[nH]c3c(C)c4c(c(C)c3c2c1)CN(C)C=C4 | 10.5 | 2.99 | 3.52 | 10.6 | > 38.9 | 17 | > 40.6 | 2.3 | 14.8 | 9.01 | 12.9 | 0.975 | 3.2 | 8 | 19.5 | 1.21 | 5.89 | 2.71 | 2.13
O=C(/C=C/c1ccc(O)c(O)c1)OC1C[C@@](O)(C(=O)O)C[C@@H](O)[C@H]1OC(=O)/C=C/c1ccc(O)c(O)c1 (some centres not stated) | > 100 | > 100 | > 100 | > 100 | > 100 | > 100 | > 100 | > 100 | > 100 | > 100 | > 100 | > 100 | > 100 | > 100 | > 100 |  |  | > 100 | > 100
O=C(CSc1nnc(Cc2ccccc2)o1)Nc1cccc(Cl)c1 | > 100 | > 100 | > 100 | > 100 | > 100 | > 100 | > 100 | > 100 | > 100 | > 100 | > 100 | > 100 | > 100 | > 100 | > 100 |  | > 100 | > 100 | > 100
O=c1c(-c2ccccc2)c2oc(c1-c1ccccc1)CS(=O)(=O)CCC2 | 44.1 | > 100 |  | 26.3 | > 100 | 45.8 | > 100 | 38.9 | 73 | > 100 | 29.5 | 83.3 | > 100 | > 100 |  |  | 96.9 | > 100 | 80.9
CC(C)(Br)C(Br)CCC(=CCBr)CBr (mixture of isomers) | 3.84 | 28.3 | 26.6 | 4.41 | 6.7 |  | 6.66 | 12.1 |  | 6.36 | 6.48 | 4.85 | 9.32 | 15.6 | 27.5 |  | 33.1 | 8.89 | 28.3
CCOC(=O)C1(C#N)C(c2ccccc2)CC(O)(c2ccc([N+](=O)[O-])cc2)C(C(=O)c2ccc([N+](=O)[O-])cc2)C1c1ccccc1 (configuration not stated) | > 100 | > 100 | > 100 | > 100 | > 100 | > 100 | > 100 | > 100 | > 100 | > 100 | 42.6 | > 100 | > 100 | > 100 | > 100 |  | > 100 | > 100 | > 100
O=c1cc(-c2ccccc2)oc2cc(OCC(O)COc3ccc4c(=O)cc(-c5ccccc5)oc4c3)ccc12 | 52 | > 100 |  | > 100 | > 100 | > 100 | > 100 | > 100 | > 100 | > 100 |  | 90.3 | 53.4 | > 100 | > 100 |  | > 100 | 24.6 | 
CCOC(=O)/C(C=Nc1c(C)n(C)n(-c2ccccc2)c1=O)=C(/O)c1ccccc1 | > 100 | > 100 | > 100 | > 100 | > 100 | > 100 | > 100 | > 100 | > 100 |  | > 100 | > 100 | > 100 | > 100 | > 100 |  | > 100 | > 100 | > 100
CCOC(=O)C[C@@H](C)[C@]1(C(=O)OC)CCCC1=O | > 100 | > 100 | > 100 | > 62.6 | > 100 | > 61.5 | > 100 | > 100 | > 100 | > 100 | > 100 | > 100 | > 100 | > 100 | > 100 |  | > 100 | > 100 | > 100
COc1ccc(/C=N/N=C(\N)NO)c(Cl)c1O | > 100 | 49.6 | 40.4 | > 100 | > 100 | > 100 | > 100 | 63.7 | > 100 | > 100 | > 100 | > 100 | 70.6 | > 100 | 54.1 |  | 54.8 | 72.1 | 38.6
